Here are results for 13 compounds from ChEMBL document CHEMBL1141160, “Structure-based optimization of phenylbutyrate-derived histone deacetylase inhibitors” (J Med Chem, 2005).

For one assay, the system named is DU-145. Briefly: cells. The note with it: Homo sapiens, DU-145, 96 h.
Description: Inhibitory concentration against DU-145 prostate cancer cell proliferation over 96 hr
Usually IC50 stands for the point on the concentration scale where inhibition reaches its midpoint. A low value points to inhibition by little substance. In turn, `CC(C)[C@@H](C(=O)Nc1ccc(C(=O)NO)cc1)c1ccccc1` came in with an IC50 of 820 nM.

With `CC(C)[C@H](C(=O)Nc1ccc(C(=O)NO)cc1)c1ccccc1` [AR-42], the IC50 came to 110 nM.

The target of the next assay is Histone deacetylase.
Assay: not given
As to conditions: prostate.
Compound `CC[C@H](C(=O)Nc1ccc(C(=O)NO)cc1)c1ccccc1` showed an IC50 of 34 nM.

Compound `O=C(CCCc1ccccc1)NCc1ccc(C(=O)NO)cc1` showed an IC50 of 530 nM.

Take `CN(C(=O)CCCc1ccccc1)c1ccc(C(=O)NO)cc1`: the 50% inhibitory concentration (IC50) was determined as 520 nM.

The compound `O=C(CCc1ccc(NC(=O)CCCc2ccccc2)cc1)NO` displayed a 50% inhibitory concentration (IC50) of 1200 nM.

Take `CC(C)(C(=O)Nc1ccc(C(=O)NO)cc1)c1ccccc1`: the 50% inhibitory concentration (IC50) is 98 nM.

On to `O=C(NO)c1ccc(NC(=O)c2ccccc2)cc1`, for which the IC50 was found to be 210 nM.

`CCC(C(=O)Nc1ccc(C(=O)NO)cc1)c1ccccc1` (racemic) returned an IC50 of 54 nM.

For `O=C(Cc1ccccc1)Nc1ccc(C(=O)NO)cc1`, the IC50 was found to be 157 nM.

As to `O=C(CCCCc1ccccc1)Nc1ccc(C(=O)NO)cc1`, the IC50 is 250 nM.

Compound `CC[C@@H](C(=O)Nc1ccc(C(=O)NO)cc1)c1ccccc1` yielded an IC50 of 68 nM.

`CC(C)(CCc1ccccc1)C(=O)Nc1ccc(C(=O)NO)cc1` returned a 50% inhibitory concentration (IC50) of 25 nM. This IC50 is about 2.7-fold lower than that of the compound before.
